US11717536B2, “Treatment for periodontitis” (THE UNIVERSITY OF MELBOURNE, priority 2017, dated 2023)
Marks after values point to notes of the source that are not given here.

Assays:
[1] = system: Streptococcus mutans Ingbritt; assay: Six species polymicrobial biofilm in constant-depth film fermenter, species composition: S. mutans; assay type: cell-based
Experimental: (§1) To model supragingival plaque six representative oral bacterial species, Streptococcus sanguinis (NCTC 7863), Streptococcus mutans Ingbritt, Actinomyces naeslundii (NCTC 10301), Veillonella parvula (ATCC 17745), Lactobacillus casei (NCDO 161) and Fusobacterium nucleatum (ATCC 10953) (Table 5) were cultured as a polymicrobial biofilm on a human enamel substratum in a constant-depth film fermenter (CDFF; Cardiff University, UK). The CDFF was housed in a 37° C. incubator under anaerobic conditions which were maintained by a constant flow of 5% CO2 in N2 at 1 L/h. The CDFF contained 15 removable polytetrafluoroethylene (PTFE) pans on a circular platform that was rotated at a constant speed of three rpm. The biofilms were grown on three enamel blocks (see below) in each PTFE pan using an artificial saliva medium (ASM, 2.5 g/L mucin type II (porcine, gastric, Sigma), 2.0 g/L bacteriological peptone (Oxoid), 2.0 g/L tryptone (Oxoid), 1.0 g/L yeast extract (Oxoid), 0.35 g/L NaCl, 0.2 g/L KCl, 0.2 mg/L vitamin K, 1 mg/L haemin and 0.1 g/L cysteine hydrochloride) at a constant flow rate of 30 mL/h. Prior to inoculation, the CDFF pan surfaces were conditioned for 24 h with ASM at a flow rate of 10 mL/h (McBain et al (2003) J Appl Microbiol. 94(4):655-66). In order to mimic in vivo bacterial growth conditions in the oral cavity with dietary sugar intake and to provide a high cariogenic challenge, a 1% (w/v) sucrose solution in ASM was pumped into the CDFF four times a day at four hourly intervals with a flow rate of 30 mL/h for 10 min.
(§2) Three treatments were applied to the polymicrobial biofilms: 290 ppm fluoride with 220 ppm fluoride as SnF2 and 70 ppm fluoride as NaF (referred to as SnF2), 2% CPP-ACP and 2% CPP-ACP-SnF2. […]
(§3) For each timepoint, DNA was extracted separately from 8-9 enamel blocks using PowerLyzer® PowerSoil® DNA Isolation Kits (MoBio Laboratories) following the manufacturers “Vacuum Protocol” with a Precellys® bead homogeniser (Bertin Technologies). Samples were quantified using a Qubit™ dsDNA HS assay kit (Life Technologies) before being stored at −80° C. […]

[2] = system: Veillonella parvula (ATCC 17745); assay: Six species polymicrobial biofilm in constant-depth film fermenter, species composition: V. parvula; assay type: cell-based
Experimental: as §1, §2, §3

[3] = 19 days, mean ± standard deviation, n = 5-21

Casein phosphopeptide-amorphous calcium phosphate [CPP-ACP]
S. mutans as a percentage of total bacteria in the biofilm [1, 3]: 58.70 ± 5.47^b % | change in abundance of S. mutans relative to the control (in words) ([1]; twice daily treatment, day 19): remained relatively constant | V. parvula as a percentage of total bacteria in the biofilm [2, 3]: 6.71 ± 0.89^c % | change in abundance of V. parvula relative to the control (in words) ([2]; twice daily treatment, day 19): remained relatively constant
